Test results reported in patent publication US20130065868A1, “ANXIOYTIC MARCGRAVIACEAE COMPOSITIONS CONTAINING BETULINIC ACID, BETULINIC ACID DERIVATIVES, AND METHODS” (UNIVERSITY OF OTTAWA, priority 2002, published 2013).

Legend:
Sprague-Dawley rats = assay: Fear-potentiated startle paradigm in rats; assay type: in vivo, rat
Excerpt: In this anxiety/fear paradigm, rats are first trained to associate a neutral stimulus (a light) with an aversive stimulus (an electric shock to the foot). […] However, when the acoustic stimulus is preceded by a fear cue (the light in this case), there is potentiation of their natural startle response. This potentiation of startle responses is thought to result from a classically conditioned increase in fear. Anxiolysis is inferred when there is a reduction in the magnitude of the fear-potentiated startle response.
The fear potentiated startle equipment (Med-Associates, St-Albans, Vt.) constituted (1) a pressure-sensitive platform upon which the animal is placed (in an enclosure with shock-grid floor), (2) Speakers and amplifier, to deliver acoustic stimulus, (3) Computer controlled light cue, and (4) a computerized interface to deliver the auditory and/or visual stimuli, and to record the magnitude of startle detected by the platform. The whole set up is housed in a sound attenuated and darkened chamber.
The experiment involved three phases; a training phase, a screening phase and the testing phase. […] The second or screening phase involved identifying the rats that learnt to associate the light cue with the shock, which was assessed by measuring their startle response in the absence and the presence of the fear cue. […]

CD-1 strain of mice = assay: Elevated plus maze test in CD-1 mice; assay type: in vivo, mouse; conditions: for entries into the open (anxiogenic) arm of the elevated plus maze: 45-60 min, vs peanut oil control
Description: Previous experiments were all conducted in experimental rats. Here we tested the effect of betulinic acid on CD-1 strain of mice. Mice received 0.25 or 2.5 mg/kg of betulinic acid, or peanut oil only (control), intra peritoneally (“i.p.”), and were tested 45-60 minutes later in the elevated plus maze test.

Sprague Dawley rats = assay: Locomotor activity after chronic administration; assay type: in vivo, rat; conditions: chronic 0.5 mg/kg daily orally, one night 5 p.m. to 7 a.m. (FIG. 11)
Description: Test animals and drug treatments were as in Example 14. Locomotor activity was recorded for one night (5 p.m. to 7 a.m. the following morning) in the control as well as in the betulinic acid and methyl ester of betulinic acid exposed groups. Locomotor activity was monitored using infrared sensors located on the roof of the animals' cage. Eight independent sensors monitored activity of animals according to the number of quadrants traversed.

GABAB = GABAB (Homo sapiens, UniProt Q9UBS5); assay: MDS Panlabs screen: GABAB; assay type: binding; conditions: Gabaergic
Description: (§1) Tests were conducted by MDS Panlabs to determine whether any of the classical neurotransmitter systems or the peptidergic systems thought to play a role in anxiety are affected by betulinic acid.

Histamine H2 = Histamine H2 (Homo sapiens, UniProt P25021); assay: MDS Panlabs screen: Histamine H2; assay type: binding
Description: as §1

5-HT1 = assay: MDS Panlabs screen: 5-HT1; assay type: binding; conditions: Serotonin (5-HT)
Description: as §1

5-HT3 = 5-HT3 (Homo sapiens, UniProt P46098); assay: MDS Panlabs screen: 5-HT3; assay type: binding; conditions: Serotonin (5-HT)
Description: as §1

EGF = EGF (Homo sapiens, UniProt P00533); assay: MDS Panlabs screen: EGF; assay type: binding; conditions: Peptides
Description: as §1

galanin GalR1 = galanin GalR1 (Homo sapiens, UniProt P47211); assay: MDS Panlabs screen: galanin GalR1; assay type: binding; conditions: Peptides
Description: as §1

neuropeptide Y1 = neuropeptide Y1 (Homo sapiens, UniProt P25929); assay: MDS Panlabs screen: neuropeptide Y1; assay type: binding; conditions: Peptides
Description: as §1

neuropeptide Y2 = neuropeptide Y2 (Homo sapiens, UniProt P49146); assay: MDS Panlabs screen: neuropeptide Y2; assay type: binding; conditions: Peptides
Description: as §1

neurotensin = assay: MDS Panlabs screen: neurotensin; assay type: binding; conditions: Peptides
Description: as §1

tachykinin NK1 = tachykinin NK1 (Homo sapiens, UniProt P25103); assay: MDS Panlabs screen: tachykinin NK1; assay type: binding; conditions: Peptides
Description: as §1

TNF non-selective = assay: MDS Panlabs screen: TNF non-selective; assay type: binding; conditions: Peptides
Description: as §1

COX-2 = COX-2 (Homo sapiens, UniProt P35354); assay: MDS Panlabs screen: cyclooxygenase COX-2; assay type: biochemical
Description: as §1

Chain of Histamine H2 (P25021 whole entry): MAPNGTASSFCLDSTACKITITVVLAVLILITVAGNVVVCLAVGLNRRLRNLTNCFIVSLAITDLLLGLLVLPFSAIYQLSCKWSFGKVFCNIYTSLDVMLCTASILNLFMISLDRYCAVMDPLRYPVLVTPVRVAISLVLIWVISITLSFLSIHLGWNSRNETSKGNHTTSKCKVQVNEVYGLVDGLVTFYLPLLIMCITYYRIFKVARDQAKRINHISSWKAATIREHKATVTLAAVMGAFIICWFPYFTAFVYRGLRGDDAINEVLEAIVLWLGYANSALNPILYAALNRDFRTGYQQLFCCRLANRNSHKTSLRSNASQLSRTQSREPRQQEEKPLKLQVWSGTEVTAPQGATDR
Chain of galanin GalR1 (P47211 whole entry): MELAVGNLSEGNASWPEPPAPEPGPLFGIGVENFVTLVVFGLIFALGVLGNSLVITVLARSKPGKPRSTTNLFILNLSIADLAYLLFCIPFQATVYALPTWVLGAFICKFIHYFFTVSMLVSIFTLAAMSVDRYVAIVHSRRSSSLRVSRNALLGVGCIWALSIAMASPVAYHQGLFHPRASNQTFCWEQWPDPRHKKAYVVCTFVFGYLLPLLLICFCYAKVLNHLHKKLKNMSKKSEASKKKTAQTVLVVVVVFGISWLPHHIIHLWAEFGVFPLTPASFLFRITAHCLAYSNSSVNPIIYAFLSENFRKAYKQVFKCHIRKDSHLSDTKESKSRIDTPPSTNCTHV
Chain of EGF (P00533 25-1210): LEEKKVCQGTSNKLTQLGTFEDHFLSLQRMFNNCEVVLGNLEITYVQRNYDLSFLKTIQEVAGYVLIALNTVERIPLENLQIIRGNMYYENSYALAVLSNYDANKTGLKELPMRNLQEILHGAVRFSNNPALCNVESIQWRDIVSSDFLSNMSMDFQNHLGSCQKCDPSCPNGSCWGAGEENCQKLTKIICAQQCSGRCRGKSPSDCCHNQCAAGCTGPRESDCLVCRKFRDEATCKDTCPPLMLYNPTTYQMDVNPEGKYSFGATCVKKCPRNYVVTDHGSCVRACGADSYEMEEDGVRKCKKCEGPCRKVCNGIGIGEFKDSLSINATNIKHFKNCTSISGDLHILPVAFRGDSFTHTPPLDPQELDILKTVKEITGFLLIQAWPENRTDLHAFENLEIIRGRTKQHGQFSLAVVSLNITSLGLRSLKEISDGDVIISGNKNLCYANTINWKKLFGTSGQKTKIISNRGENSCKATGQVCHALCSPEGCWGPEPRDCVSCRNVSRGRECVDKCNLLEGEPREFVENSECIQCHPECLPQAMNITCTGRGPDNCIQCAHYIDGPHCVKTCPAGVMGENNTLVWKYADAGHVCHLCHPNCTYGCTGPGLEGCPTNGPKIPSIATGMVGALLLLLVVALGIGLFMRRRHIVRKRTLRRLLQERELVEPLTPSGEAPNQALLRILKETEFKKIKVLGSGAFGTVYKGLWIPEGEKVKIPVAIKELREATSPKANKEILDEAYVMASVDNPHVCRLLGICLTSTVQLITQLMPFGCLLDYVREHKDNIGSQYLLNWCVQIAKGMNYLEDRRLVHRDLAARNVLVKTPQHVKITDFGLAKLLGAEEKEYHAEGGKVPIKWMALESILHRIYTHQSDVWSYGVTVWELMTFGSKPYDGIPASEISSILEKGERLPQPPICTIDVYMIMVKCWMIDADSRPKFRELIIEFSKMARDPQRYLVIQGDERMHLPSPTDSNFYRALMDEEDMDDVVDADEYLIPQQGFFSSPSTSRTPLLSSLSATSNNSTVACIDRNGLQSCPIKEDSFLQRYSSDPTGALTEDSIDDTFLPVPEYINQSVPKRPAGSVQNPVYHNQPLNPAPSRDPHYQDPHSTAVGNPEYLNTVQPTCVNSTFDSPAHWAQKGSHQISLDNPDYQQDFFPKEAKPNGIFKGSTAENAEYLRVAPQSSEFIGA
Chain of GABAB (Q9UBS5 15-961 limits assumed): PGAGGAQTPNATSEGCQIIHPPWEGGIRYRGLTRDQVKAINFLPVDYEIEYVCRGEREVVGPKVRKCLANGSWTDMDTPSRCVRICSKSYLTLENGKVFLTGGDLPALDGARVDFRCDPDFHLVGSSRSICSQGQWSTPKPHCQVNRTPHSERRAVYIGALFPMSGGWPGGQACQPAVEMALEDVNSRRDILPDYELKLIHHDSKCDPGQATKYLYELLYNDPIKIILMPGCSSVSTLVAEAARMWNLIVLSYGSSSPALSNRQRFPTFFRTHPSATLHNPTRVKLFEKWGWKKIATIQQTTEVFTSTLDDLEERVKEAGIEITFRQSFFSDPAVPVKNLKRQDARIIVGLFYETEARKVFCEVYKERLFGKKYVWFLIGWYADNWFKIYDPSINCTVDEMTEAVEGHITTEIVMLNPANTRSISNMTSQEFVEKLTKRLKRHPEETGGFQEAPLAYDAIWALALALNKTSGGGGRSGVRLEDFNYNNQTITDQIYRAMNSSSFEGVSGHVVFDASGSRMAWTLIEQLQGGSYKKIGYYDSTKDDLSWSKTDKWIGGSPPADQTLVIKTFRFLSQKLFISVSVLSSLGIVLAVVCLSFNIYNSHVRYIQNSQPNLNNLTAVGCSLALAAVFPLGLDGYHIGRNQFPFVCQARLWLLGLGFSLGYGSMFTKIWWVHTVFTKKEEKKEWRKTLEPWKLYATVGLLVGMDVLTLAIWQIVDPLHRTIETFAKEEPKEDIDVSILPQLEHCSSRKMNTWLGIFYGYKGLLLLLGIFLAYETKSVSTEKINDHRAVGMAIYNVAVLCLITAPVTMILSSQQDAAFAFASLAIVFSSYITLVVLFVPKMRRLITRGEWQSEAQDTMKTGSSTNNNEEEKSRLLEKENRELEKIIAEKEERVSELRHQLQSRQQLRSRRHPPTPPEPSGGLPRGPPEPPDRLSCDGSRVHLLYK
Chain of GABAB (O75899 42-941 partner): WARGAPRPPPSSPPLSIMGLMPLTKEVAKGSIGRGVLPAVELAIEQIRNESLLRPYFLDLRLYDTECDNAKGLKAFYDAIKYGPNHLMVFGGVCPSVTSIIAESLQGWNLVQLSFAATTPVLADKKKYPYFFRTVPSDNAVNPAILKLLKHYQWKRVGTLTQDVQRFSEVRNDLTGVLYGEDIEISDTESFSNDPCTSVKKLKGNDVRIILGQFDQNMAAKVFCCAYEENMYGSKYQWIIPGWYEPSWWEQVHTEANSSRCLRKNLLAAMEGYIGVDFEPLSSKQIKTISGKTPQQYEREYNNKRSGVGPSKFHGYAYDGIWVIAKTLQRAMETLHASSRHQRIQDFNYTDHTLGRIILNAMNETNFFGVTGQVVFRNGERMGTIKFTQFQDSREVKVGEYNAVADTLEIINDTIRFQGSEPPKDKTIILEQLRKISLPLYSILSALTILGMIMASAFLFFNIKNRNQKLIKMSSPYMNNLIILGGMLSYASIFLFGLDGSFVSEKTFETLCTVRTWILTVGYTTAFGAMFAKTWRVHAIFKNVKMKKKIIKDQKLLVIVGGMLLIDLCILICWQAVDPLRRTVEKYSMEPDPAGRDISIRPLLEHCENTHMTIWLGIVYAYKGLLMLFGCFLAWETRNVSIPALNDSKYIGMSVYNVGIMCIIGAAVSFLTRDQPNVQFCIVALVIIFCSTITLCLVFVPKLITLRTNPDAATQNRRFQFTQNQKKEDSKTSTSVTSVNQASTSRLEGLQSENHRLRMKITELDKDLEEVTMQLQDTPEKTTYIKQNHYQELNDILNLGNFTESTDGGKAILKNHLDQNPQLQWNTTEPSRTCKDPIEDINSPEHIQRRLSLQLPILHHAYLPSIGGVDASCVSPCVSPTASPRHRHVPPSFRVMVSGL
Chain of tachykinin NK1 (P25103 whole entry): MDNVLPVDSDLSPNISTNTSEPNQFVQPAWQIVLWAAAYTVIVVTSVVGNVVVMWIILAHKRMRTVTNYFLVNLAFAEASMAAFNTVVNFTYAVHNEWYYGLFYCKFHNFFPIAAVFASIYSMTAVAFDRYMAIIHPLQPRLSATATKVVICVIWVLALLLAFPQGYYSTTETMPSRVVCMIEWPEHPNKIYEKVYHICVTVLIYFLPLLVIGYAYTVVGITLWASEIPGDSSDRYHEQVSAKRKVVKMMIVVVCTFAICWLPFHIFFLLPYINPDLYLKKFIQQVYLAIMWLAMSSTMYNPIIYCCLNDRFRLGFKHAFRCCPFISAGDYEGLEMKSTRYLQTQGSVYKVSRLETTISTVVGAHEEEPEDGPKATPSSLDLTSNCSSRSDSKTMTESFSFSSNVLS
Chain of neuropeptide Y2 (P49146 whole entry): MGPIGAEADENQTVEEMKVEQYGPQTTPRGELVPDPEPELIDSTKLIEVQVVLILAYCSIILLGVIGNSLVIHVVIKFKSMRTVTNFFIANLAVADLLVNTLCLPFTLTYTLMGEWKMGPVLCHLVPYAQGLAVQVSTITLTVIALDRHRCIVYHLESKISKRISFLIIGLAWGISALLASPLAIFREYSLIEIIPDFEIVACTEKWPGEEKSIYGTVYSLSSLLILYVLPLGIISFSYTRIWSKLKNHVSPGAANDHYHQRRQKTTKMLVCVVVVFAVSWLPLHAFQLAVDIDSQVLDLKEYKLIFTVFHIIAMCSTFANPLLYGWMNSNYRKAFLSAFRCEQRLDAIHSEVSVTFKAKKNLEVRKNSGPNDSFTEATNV
Chain of 5-HT3 (P46098 24-478, species assumed): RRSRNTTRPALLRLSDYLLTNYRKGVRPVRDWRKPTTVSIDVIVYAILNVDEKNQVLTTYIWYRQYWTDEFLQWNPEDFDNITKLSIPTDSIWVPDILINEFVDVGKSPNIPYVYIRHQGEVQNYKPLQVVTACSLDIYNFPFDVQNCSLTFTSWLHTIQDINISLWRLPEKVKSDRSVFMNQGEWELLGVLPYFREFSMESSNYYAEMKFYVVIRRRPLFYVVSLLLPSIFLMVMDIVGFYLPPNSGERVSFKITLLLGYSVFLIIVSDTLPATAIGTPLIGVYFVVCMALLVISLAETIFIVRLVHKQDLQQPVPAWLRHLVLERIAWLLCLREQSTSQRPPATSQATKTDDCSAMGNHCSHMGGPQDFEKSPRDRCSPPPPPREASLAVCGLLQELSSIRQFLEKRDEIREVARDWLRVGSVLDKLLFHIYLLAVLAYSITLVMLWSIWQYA

SMILES: C=C(C)[C@@H]1CC[C@]2(C(=O)O)CC[C@]3(C)C(CC[C@@H]4[C@@]5(C)CC[C@H](O)C(C)(C)[C@@H]5CC[C@]43C)[C@@H]12 (stereo partly shown) [betulinic acid, Betulinic acid]
- startle response in the presence of the fear-cue (Sprague-Dawley rats; 1 mg/kg in peanut oil orally (gavage), 45-60 min after treatment (FIG. 4)): significantly attenuated the startle response in the presence of the fear-cue
- difference in startle amplitude (presence minus absence of the fear cue) (Sprague-Dawley rats; 1 mg/kg orally (gavage), vs peanut oil control (FIG. 4)): much lower
- entries into the open (anxiogenic) arm of the elevated plus maze (CD-1 strain of mice; CD-1 mice, 0.25 mg/kg i.p.): more often than controls
- entries into the open (anxiogenic) arm of the elevated plus maze (CD-1 strain of mice; CD-1 mice, 2.5 mg/kg i.p.): more often than controls
- proportion of time spent on the open arm of the maze (CD-1 strain of mice; CD-1 mice, 0.25 or 2.5 mg/kg i.p. (dose not singled out in the sentence)): increased significantly
- maximally effective dose (CD-1 strain of mice; mice, i.p., elevated plus maze, higher dose did not increase the effect further): 0.25 mg/kg
- adverse effect on locomotor activity or pattern (Sprague Dawley rats): neither betulinic acid nor the methyl ester of betulinic acid had an adverse effect on locomotor activity or pattern
- affected by betulinic acid (GABAB): none of the following neurotransmitters or proteins were affected
- affected by betulinic acid (Histamine H2): none of the following neurotransmitters or proteins were affected
- affected by betulinic acid (5-HT1): none of the following neurotransmitters or proteins were affected
- affected by betulinic acid (5-HT3): none of the following neurotransmitters or proteins were affected
- affected by betulinic acid (EGF): none of the following neurotransmitters or proteins were affected
- affected by betulinic acid (galanin GalR1): none of the following neurotransmitters or proteins were affected
- affected by betulinic acid (neuropeptide Y1): none of the following neurotransmitters or proteins were affected
- affected by betulinic acid (neuropeptide Y2): none of the following neurotransmitters or proteins were affected
- affected by betulinic acid (neurotensin): none of the following neurotransmitters or proteins were affected
- affected by betulinic acid (tachykinin NK1): none of the following neurotransmitters or proteins were affected
- affected by betulinic acid (TNF non-selective): none of the following neurotransmitters or proteins were affected
- affected by betulinic acid (COX-2): none of the following neurotransmitters or proteins were affected
